Measured values reported in patent US8273771B2, “Ischemic disorder or disease inhibitors” (Pronas Pharma AB, priority 2007, dated 2012).

What was measured:
rats with induced SAH [1] = test: Neurological scoring in rat subarachnoid hemorrhage model; assay type: in vivo; conditions: established scoring system, SAH+vehicle score 1, sham score 0
From the text: Subarachnoid hemorrhage was induced by a model originally devised by Svendgaard et al and carefully described by Prunell et al (2003). Male Sprague-Dawley rats (350-400 g) were anaesthetized using 5% halothane (Halocarbon Laboratories, River Edge, N.J.) in N2O/O2 (30:70). The rat was intubated and artificially ventilated with inhalation of 0.5-1.5% halothane in N2O/O2 (70:30) during the surgical procedure. The depth of anaesthesia was carefully monitored and the respiration checked by regularly withdrawing arterial blood samples for blood gas analysis (Radiometer, Copenhagen, Denmark). An electric temperature probe was inserted into the rectum of the rat to record the temperature, which was maintained at 37° C. An arterial catheter to measure blood pressure was placed in the tail artery and a catheter to monitor intracranial pressure (ICP) was placed in the subarachnoid space under the subocciptal membrane. At either side of the skull, 3 mm from the midline and 4 mm anteriorly from the bregma, holes were drilled through the skull bone down to dura mater (without perforation) allowing the placement of two laser-Doppler flow probes to measure cortical CBF. […]
During the period, the rat was monitored regularly, and if showing severe distress the animal was prematurely killed. […]

rats with induced SAH [2] = test: Physiological parameters in operated SAH rats; assay type: in vivo, rat; conditions: sham, SAH+vehicle and treated SAH groups
From the text: Subarachnoid hemorrhage was induced by a model originally devised by Svendgaard et al and carefully described by Prunell et al (2003). Male Sprague-Dawley rats (350-400 g) were anaesthetized using 5% halothane (Halocarbon Laboratories, River Edge, N.J.) in N2O/O2 (30:70). The rat was intubated and artificially ventilated with inhalation of 0.5-1.5% halothane in N2O/O2 (70:30) during the surgical procedure. The depth of anaesthesia was carefully monitored and the respiration checked by regularly withdrawing arterial blood samples for blood gas analysis (Radiometer, Copenhagen, Denmark). An electric temperature probe was inserted into the rectum of the rat to record the temperature, which was maintained at 37° C. An arterial catheter to measure blood pressure was placed in the tail artery and a catheter to monitor intracranial pressure (ICP) was placed in the subarachnoid space under the subocciptal membrane. At either side of the skull, 3 mm from the midline and 4 mm anteriorly from the bregma, holes were drilled through the skull bone down to dura mater (without perforation) allowing the placement of two laser-Doppler flow probes to measure cortical CBF. Finally, a 27G blunt canula with side hole was introduced 6.5 mm anterior to bregma in the midline at an angle of 30° to the vertical. With the aperture pointing to the right, the needle was lowered until the tip reached the skull base 2 to […] anterior to the chiasma. After 30 minutes of equilibration 250 μl blood was withdrawn from the tail catheter and injected intracranially via this canula at a pressure equal to the mean arterial blood pressure (MABP) (80-100 mmHg). Subsequently the rat was kept under anaesthesia for another 60 minutes to allow recovery from the cerebral insult after which catheters were removed and incisions closed. The rat was then revitalized and extubated. A subcutaneous injection of carprofen (4.0 mg/kg) (Pfizer, Denmark) was administered and the rat was hydrated subcutaneously using […] isotonic sodium chloride at the end of the operation and at day one.

rats with induced SAH [3] = test: Autoradiographic measurements of regional and global CBF after SAH; assay type: in vivo, rat; conditions: for reduction in regional CBF (rCBF) after SAH: 18 brain regions
Experimental: In addition they were treated with 20-50 μl; 10^-6 M of SB386023-b (a kind gift from Dr A A Parsons, GSK, UK) or the same volume of vehicle repeatedly 6, 12, 24 and 36 h after the induced SAH. This dose was based on a previous in vivo study with SAH.
In addition, they were treated with the PKC inhibitor RO-31-7549 (Calbiochem, Sweden) or vehicle in conjunction with the operation and after the induced SAH. All animals treated with RO-31-7549 received […] injections intracisternally of RO-31-7549 or vehicle in similar volume. Thus, 20 to 50 μl 10-^6 mol/L of RO-31-7549 was injected intracisternally at 30 mins before the induced SAH and after the SAH 20 μl 10-^6 mol/L of RO-31-7549 was administered repeatedly after 3, 6, 12, 24 and 32 h from the first RO-31-7549 injection. This dose was chosen on the basis of previous detailed work on isolated cerebral arteries (Hansen-Schwartz et al, 2002), the dose was chosen at near maximum inhibition and calculation of cerebrospinal fluid volume/turnover.
Regional and global cerebral blood flow was measured by a model originally described by Sakurada et al., (1978) and modified by Gjedde et al., (1980). In brief, after 48 hours of observation rats in the various groups (sham, SAH+vehicle and SAH treated with the raf inhibitor) were anaesthetized using 5% halothane in N2O/O2 (30:70). The animal was intubated and artificially ventilated with inhalation of 0.5-1.5% halothane in N2O/O2 (70:30) during the surgical procedure. The anaesthesia and the respiration were monitored by regularly withdrawing arterial blood samples for blood gas analysis (Radiometer AS, Denmark). A catheter to measure MABP was placed in the right femoral artery and a catheter for blood sampling was placed in the left femoral artery. This catheter was connected to a constant velocity withdrawal pump (Harvard apparatus 22, USA) for mechanical integration of tracer concentration. In addition, a catheter was inserted in one femoral vein for injection of heparin and for infusion of the radioactive tracer. The MABP was continuously monitored with a Powerlab Unit (ADInstruments, UK). A temperature probe was inserted into the rectum of the rat to record the temperature, which was regularly maintained at 37° C. The hematocrit was measured by a hematocrit centrifuge (Beckman Microfuge 11, USA). After 30 minutes of equilibration a bolus injection of 50 uCi of 14Ciodoantipyrine 4[N-methyl-14C] (Perkin-Elmer, Boston, USA) was given i.v. Arterial blood (122 μl) was withdrawn over 20 seconds. Immediately after this the animal was decapitated, the brain removed and immersed in isopentane (J. T. Baker, Deventer, Netherlands) chilled to −50° C. The arterial blood sample was transferred to liquid scintillation counting vials containing 1 ml mixture of Soluene-350 (Perkin-Elmer, Boston, USA) and Isopropanol (J. T. Baker, Deventer, Netherlands) (1:1). After 2 hours at 60° C., 0.2 ml of 30% hydrogen peroxide was added to the vials, and the samples were maintained at room temperature for 15-30 minutes. Thereafter the samples were kept at 60° C. for 30 minutes and 10-15 ml Hionic-Fluor (Perkin-Elmer, Foster, Calif., USA) was added. The β-radioactivity scintillation counting was performed on the samples with a program that included quench correction (Packard 2000 CA, Denmark). The 14C activity in the tissue was determined after sectioning the brain in 20 μm sections at −20° C. in a cryostat (Wild Leitz A/S, Glostrup, Denmark). The sections were exposed to x-ray films (Kodak, Denmark) together with 14C methylmethacrylate standards (Amersham Life Science, England) and exposed the films for 20 days. Densities of the autoradiograms were measured with a Macintosh computer equipped with an analog CF 4/1 camera (Kaiser, Germany) and a transparency flat viewer (Color-Control 5000, Weilheim, Germany). The 14C content was determined in several brain regions (see Table 2). […]

[4] = intracisternal injections from 30 min before SAH and repeatedly after

SMILES	neurological score (rats with induced SAH [1])	physiological parameters (MABP, pCO2, pO2, hematocrit, temperature), difference between groups (rats with induced SAH [2])	global reduction in CBF after SAH (rats with induced SAH [3]; [4])	reduction in regional CBF (rCBF) after SAH (rats with induced SAH [3]; [4])	global cerebral blood flow (rats with induced SAH [3]; measured at 48 h, treatment 6 h after the SAH, control 140±6, SAH 63±2)	reduction in regional CBF (rCBF) after SAH (rats with induced SAH [3]; treatment at 6 h after SAH)	reduction in regional CBF (rCBF) after SAH (rats with induced SAH [3]; treatment at 0 h / in conjunction with the SAH)
Cn1cc(C2=C(c3cn(CCCN)c4ccccc34)C(=O)NC2=O)c2ccccc21 [RO-31-7549]	0	No statistical difference	prevented the marked reduction in CBF	prevented this reduction in rCBF			
Oc1cc(-c2nc(-c3ccccc3)[nH]c2-c2ccncc2)ccc1Cl [SB386023-b]	0	No statistical difference			128±4 ml/100 g/min	prevented this reduction in rCBF	
N#CC(=C(/N)Sc1ccccc1N)/C(C#N)=C(\N)Sc1ccccc1N [U0126]		No statistical difference				prevented this reduction in rCBF	prevented this reduction in rCBF
